Consider eight compounds from US5618807A, “Method for preparing 17-substituted steroids useful in cancer treatment” (priority 1992, dated 1997).

pIC50: −log10 of the molar value. Where two headings read alike, the source gives them in different places.

The subject of one series is Male HWT mice. It counts as in vivo. The following applies: for Kidneys mean weight ± standard error: 2 weeks. How it is done:
(§1) Male HWT mice, 12 weeks old, were treated daily for 2 weeks, with 5 animals per treatment group. The test compounds were the compound of Examples 1 and 4 (as representative of compounds of the invention having the pregenolone-like and progesterone-like skeletons respectively). Ketoconazole was also tested at three different doses. The test compounds were made up in 5% benzyl alcohol, 95% safflower oil, and were given i.p.. In addition to an untreated control group of animals, there was also a solvent control group which received the same volume of liquid as the test group (5 ml/kg) but no test compound. All animals were sacrificed 24 hours after the last injection. Blood was collected by cardiac puncture into heparinized tubes, and the plasma used for RIA (radio immunoassay) of testosterone and luteinising hormone. The following organs were removed and weighed: adrenals, prostate, seminal vesicles, testes, kidneys. There was no significant body weight loss in any group of mice during the experiments.

Details of series [1]: species or system mice (male HWT). Particulars: mouse, in vivo, ip. How it is done:
as §1
In Ketoconazole-treated animals, adhesions were found in 2/5,2/5,4/5 of the low/middle/top dose groups. […] The livers were brown in the middle/top dose groups.

The subject of series [2] is testosterone and luteinising hormone. The experiment in a line: In vivo endocrine test in mice (plasma testosterone and LH by RIA). The following applies: 2 weeks. Details: species or system mice (male HWT).
Method: Male HWT mice, 12 weeks old, were treated daily for 2 weeks, with 5 animals per treatment group. […] The test compounds were made up in 5% benzyl alcohol, 95% safflower oil, and were given i.p.. In addition to an untreated control group of animals, there was also a solvent control group which received the same volume of liquid as the test group (5 ml/kg) but no test compound. All animals were sacrificed 24 hours after the last injection. Blood was collected by cardiac puncture into heparinized tubes, and the plasma used for RIA (radio immunoassay) of testosterone and luteinising hormone.
The target in the next series is T1, 17α-Hydroxylase (Homo sapiens, UniProt P05093).
T1 construct: A microsomal preparation was prepared essentially as described by S. E. Barrie et al; from tissue; host or cells: human testis microsomes
T1 sequence (P05093 1-508): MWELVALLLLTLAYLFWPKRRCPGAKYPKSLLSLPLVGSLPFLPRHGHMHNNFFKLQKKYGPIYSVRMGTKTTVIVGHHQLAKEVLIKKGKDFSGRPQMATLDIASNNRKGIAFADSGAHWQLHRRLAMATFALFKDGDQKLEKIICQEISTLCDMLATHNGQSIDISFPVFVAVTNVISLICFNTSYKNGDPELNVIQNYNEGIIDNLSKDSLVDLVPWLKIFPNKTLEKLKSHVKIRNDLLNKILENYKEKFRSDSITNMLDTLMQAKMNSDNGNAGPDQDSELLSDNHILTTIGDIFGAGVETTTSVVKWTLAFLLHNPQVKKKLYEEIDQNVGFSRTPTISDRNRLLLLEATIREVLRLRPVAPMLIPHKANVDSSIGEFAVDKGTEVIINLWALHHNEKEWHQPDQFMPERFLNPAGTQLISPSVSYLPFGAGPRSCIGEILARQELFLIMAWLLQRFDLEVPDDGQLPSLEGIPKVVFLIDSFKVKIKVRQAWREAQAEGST
In words: Determination of 17α-hydroxylase inhibition (human testicular microsomes, 3H-progesterone substrate). It is filed as biochemical. The following applies: relative to 3-pyridyl compound.

A further series has as its target T2, C17-C20 lyase (Homo sapiens, UniProt P05093).
T2 construct: A microsomal preparation was prepared essentially as described by S. E. Barrie et al; from tissue; host or cells: human testis microsomes
T2 sequence (P05093 1-508): T1 sequence (P05093 1-508)
The experiment in a line: Determination of C17-C20 lyase inhibition (human testicular microsomes, 3H-17α-hydroxyprogesterone substrate). It counts as biochemical. The following applies: for concentration required to achieve 50% inhibition of lyase, compared with the 3-pyridyl (in words): relative to 3-pyridyl compound.

For a further series, the target named is T3, aromatase (Homo sapiens, UniProt P11511).
T3 construct: using human placental microsomes; from tissue; host or cells: human placental microsomes
T3 sequence (P11511 1-503): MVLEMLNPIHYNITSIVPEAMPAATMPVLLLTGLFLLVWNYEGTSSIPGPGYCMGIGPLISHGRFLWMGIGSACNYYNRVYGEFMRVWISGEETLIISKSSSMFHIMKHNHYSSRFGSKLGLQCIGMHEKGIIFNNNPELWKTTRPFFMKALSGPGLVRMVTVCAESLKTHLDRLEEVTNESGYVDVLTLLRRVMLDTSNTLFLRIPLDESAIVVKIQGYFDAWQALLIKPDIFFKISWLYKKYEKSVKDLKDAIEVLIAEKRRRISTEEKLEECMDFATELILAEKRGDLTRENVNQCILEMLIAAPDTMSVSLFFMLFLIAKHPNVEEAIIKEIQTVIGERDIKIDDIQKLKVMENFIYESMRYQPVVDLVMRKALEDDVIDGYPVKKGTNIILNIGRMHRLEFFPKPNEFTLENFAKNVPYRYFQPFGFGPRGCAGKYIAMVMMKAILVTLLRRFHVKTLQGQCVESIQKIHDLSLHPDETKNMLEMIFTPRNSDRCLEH
It counts as biochemical. The following applies: human placental microsomes used; read-out: Michaelis constant Km.

Method for 17α-Hydroxylase: (§2) Human testes were obtained from previously untreated patients undergoing orchidectomy for prostatic cancer. The testes were decapsulated and stored in liquid nitrogen until use. […] The material was then thawed, finely chopped, and homogenised in 0.25M sucrose (5 ml/g wet weight) using a Potter homogeniser. The homogenate was centrifuged at 12000 g for 30 min, and then the microsomes were pelleted by spinning the supernatant at 100,000 g for 1 hr. The pellet was washed by being resuspended in 0.25M sucrose and repelleted. The microsomal pellet was then resuspended in 50 mM sodium phosphate pH 7.4/ glycerol (3/1 v/v) and stored in aliquots in liquid nitrogen.
(§3) The basic assay mixture was EDTA (0.2 mM), dithiothreitol (DTT; 0.1 mM), NADPH (0.25 mM), glucose 6-phosphate dehydrogenase (G6PDH; 6.25 μg/ml), MgCl2 (1 mM), glucose 6-phosphate (G6P; 10 mM) and the substrate, ^3 H-progesterone (3 μM) in sodium phosphate (50 mm), pH 7.4. The compounds under test were dissolved in 50% DMSO and the final concentrations of ethanol and DMSO were 1% each. The assay reaction was carried out for 1 hour and was terminated by the addition of 2 vols. of methanol-acetonitrile (2:1) containing approx. 100 μM unlabelled progesterone, 17α-hydroxyprogesterone, androstenedione, testosterone, and 16α-hydroxyprogesterone.
The separation of the steroids by HPLC was carried out using an "Uptight" guard column packed with 40-63 μm Nucleosil C18 and a 10 cm main column packed with 5 μm Nucleosil C18 and 60% methanol as eluant. The radioactivity in the peaks of interest was monitored on-line by mixing the HPLC effluent 1:1 with Ecoscint A (National Diagnostics) scintillation fluid, containing 25% acetonitrile, and passing the mixture through a Berthold LB506C radiochemical monitor. The hydroxylase activity was measured as the production of 17α-hydroxyprogesterone, androstenedione and testosterone.
The enzyme activity was measured in the presence of at least 4 concentrations of each compound. […]
Method for C17-C20 lyase: as §2, §3
The mixture was the same as described above for the 17αt-hydroxylase except that the substrate was ^3 H-17α-hydroxy- progesterone.
The HPLC separation used for the lyase involved a mini-re-column "Uptight Guard Column" packed with PELL-ODS (pellicular octadecyl silica) and a 10 cm. main column "Apex C18" column packed with 5 μ, APEX-CAT silica.
The eluant was 38:12:50 methanol:acetonitrile:water flowing at 1 ml/min. The effluent was mixed 1:1 with Ecoscint A containing 5% methanol and 5% acetonitrile and the radioactivity was measured directly by a Berthold LB506C radiochemical detector. The lyase activity was measured as the production of androstenedione and testosterone.
The enzyme activity was measured in the presence of at least 4 concentrations of each compound. […] Data for all the other compounds were fitted by non-linear regression to the median effect equation of Chou, J. Theoret.
Method for aromatase: Aromatase activity was determined by the method of A. B. Foster et all., J. Med. Chem. 26, 50-54 (1983), using human placental microsomes.

As to `CC(=O)O[C@H]1CC[C@@]2(C)C(=CC[C@@H]3[C@@H]2CC[C@]2(C)C(c4cccnc4)=CC[C@@H]32)C1` [Example 1, 3β-acetoxy-17-(3-pyridyl)androsta-5,16-diene], the “Kidneys mean weight ± standard error” value in the series on Male HWT mice (0.02 mmol/kg/day i.p.) is given as 604 ± 24 mg; with Male HWT mice (0.1 mmol/kg/day i.p.), 500 ± 8 mg; in the series with Male HWT mice (0.5 mmol/kg/day i.p.), 449 ± 12 mg. Also, the “post mortem examination: appearance of organs” value in series [1] is “all organs looked normal”. Also, the “post mortem examination: deposits” value in series [1] is recorded as “oil/white deposits i.p”. Moreover, the “Testosterone (mean ± standard error)” value in series [2] (0.02 mmol/kg/day i.p.) came out at 2.7 ± 0.5 nM; in series [2] (0.1 mmol/kg/day i.p.), 0.2 ± 0.1 nM; in series [2] (0.5 mmol/kg/day i.p.), 0.1 ± 0.0 nM.

Regarding `C[C@]12CC[C@H](O)CC1=CC[C@@H]1[C@@H]2CC[C@]2(C)C(c3ccccn3)=CC[C@@H]12` [Example 2-Pyridyl], the “concentration required to achieve 50% inhibition of hydroxylase, compared with the 3-pyridyl (in words)” value at 17α-Hydroxylase is reported as “far greater”. In addition, on C17-C20 lyase, the “concentration required to achieve 50% inhibition of lyase, compared with the 3-pyridyl (in words)” value is “far greater”.

Regarding `C[C@]12CC[C@H](O)CC1=CC[C@@H]1[C@@H]2CC[C@]2(C)C(Cc3ccccn3)=CC[C@@H]12` [Example 2-picolyl], the “concentration required to achieve 50% inhibition of hydroxylase, compared with the 3-pyridyl (in words)” value at 17α-Hydroxylase is recorded as “far greater”. Further, the “concentration required to achieve 50% inhibition of lyase, compared with the 3-pyridyl (in words)” value at C17-C20 lyase was “far greater”.

In the case of `C[C@]12CCC(=O)C=C1CC[C@@H]1[C@@H]2CC[C@]2(C)C(c3cccnc3)=CC[C@@H]12` [Example 4, 17-(3-Pyridyl)androsta-4,16-dien-3-one], in series [1], the “post mortem examination: appearance of organs” value is recorded as “all organs looked normal” and the “post mortem examination: deposits” value is “white deposits throughout the abdomen”.

Take `C[C@]12CC[C@H](O)CC1=CC[C@@H]1[C@@H]2CC[C@]2(C)C(c3ccncc3)=CC[C@@H]12` [Example 4-pyridyl]: the “concentration required to achieve 50% inhibition of hydroxylase, compared with the 3-pyridyl (in words)” value at 17α-Hydroxylase is reported as “far greater”. The “concentration required to achieve 50% inhibition of lyase, compared with the 3-pyridyl (in words)” value on C17-C20 lyase was “far greater”.

Compound `C[C@]12CCC(=O)C=C1[C@@H](F)C[C@@H]1[C@@H]2CC[C@]2(C)C(c3cccnc3)=CC[C@@H]12` [Example 12, 6α-Fluoro-17-(3-pyridyl)androsta-4,16-dien-3-one] had a negative logarithm of the IC50 (pIC50) at C17-C20 lyase (Table 2, approx. 4 nM enzyme, listed as Ex. 12) of 8.66.

As for `CC(=O)N1CCN(c2ccc(OCC3COC(Cn4ccnc4)(c4ccc(Cl)cc4Cl)O3)cc2)CC1` (centres unmarked) [Ketoconazole], the “effect on adrenal weight (in words)” value with Male HWT mice (mouse, in vivo) was “increase in adrenal weight”. The “post mortem examination: gut and peritoneal wall” value in series [1] is “seemed to be stuck to the seminal vesicles”.

As for `[3H][C@@H]1CC(=O)C=C2CC[C@@H]3[C@H](CC[C@]4(C)C(=O)CC[C@@H]34)[C@]21C` [[1β-^3 H]androstenedione], the Michaelis-Menten constant (Km) on aromatase amounted to 0.039 µM.

In general, pIC50 refers to the IC50 on a negative log10 scale, so that one unit is a factor of ten. The low end stands for a large IC50, the high end for a small IC50. Usually Km stands for the concentration of substrate that gives half-maximal velocity.
